Where two headings read alike, the source gives them in different places.
Columns and labels:
[1] = Cytotoxicity assay in BHK-21 cells; format: cell-based, Hamster; conditions: hamster
BHK-21 cells = assay: Cytotoxicity assay in BHK-21 cells; format: cell-based, Hamster; conditions: concentrations up to 20 μM
DENV1 = assay: CPE-based antiviral assay (resazurin), DENV1 in BHK-21; format: cell-based, Dengue virus 1; conditions: Dengue virus, DENV1, BHK-21, 120 h, read-out: EC50 against DENV1
DENV2 = assay: CPE-based antiviral assay (resazurin), DENV2 in BHK-21; format: cell-based, Dengue virus 2; conditions: Dengue virus, DENV2, BHK-21, 96 h, read-out: EC50 against DENV2
DENV3 = assay: CPE-based antiviral assay (resazurin), DENV3 in BHK-21; format: cell-based, Dengue virus 3; conditions: Dengue virus, DENV3, BHK-21, 120 h, read-out: EC50 against DENV3
DENV4 = assay: CPE-based antiviral assay (resazurin), DENV4 in BHK-21; format: cell-based, Dengue virus 4; conditions: Dengue virus, DENV4, BHK-21, 120 h, read-out: EC50 against DENV4
ZIKV = assay: CPE-based antiviral assay (MTT), ZIKV in BHK-21; format: cell-based; conditions: Zika virus, BHK-21, 72 h, read-out: EC50 against ZIKV
YFV = assay: microbe, parasite or virus in culture; format: cell-based; conditions: Yellow fever virus, BHK-21, 72 h, read-out: EC50 against YFV
JEV = assay: CPE-based antiviral assay (MTT), JEV in BHK-21; format: cell-based; conditions: Japanese encephalitis virus, BHK-21, 72 h, read-out: EC50 against JEV
WNV = assay: CPE-based antiviral assay (MTT), WNV in BHK-21; format: cell-based; conditions: West Nile virus, BHK-21, 72 h, read-out: EC50 against WNV
[2] = Cytotoxicity against MRC5 cells; format: cell-based, Human; conditions: human, rescreening (Table 3), read-out: CC50
Protocol: (§1) The MTT (3-[4,5-dimethyl-2-thiazolyl]-2,5-diphenyl-2H-tetrazolium bromide) and resazurin reduction assays were carried out as previously described ([Nobori et al., 2018]; [Sanaki et al., 2019]). These were performed to calculate cell viability following viral induced CPE or cytotoxicity. Assay conditions for flaviviruses are as described in Table 2.

MRC5 cells = assay: Cytotoxicity against MRC5 cells; format: cell-based, Human; conditions: mean from three independent experiments (Table 4), read-out: CC50 MRC5, mean
Protocol: as §1

SARS-CoV-2 [3] = assay: qRT-PCR analysis of SARS-CoV-2 in Caco-2 cells (rescreening, supernatant viral RNA); format: cell-based; conditions: Severe acute respiratory syndrome coronavirus 2; qRT-PCR analysis using Caco-2 cells, MOI 0.1, 48 h
[4] = Cytotoxicity against Huh7 cells; format: cell-based; conditions: human
Protocol: as §1

[5] = Cytotoxicity against A549/TMPRSS2 cells; format: cell-based; conditions: human
Protocol: as §1

[6] = Cytotoxicity against VeroE6/TMPRSS2 cells; format: cell-based; conditions: African green monkey
Protocol: as §1

[7] = Cytotoxicity against Caco-2 cells; format: cell-based; conditions: human
Protocol: as §1

HCoV-OC43 [8] = assay: qRT-PCR of viral RNA, HCoV-OC43-infected Huh7 cells; format: cell-based, Human coronavirus OC43; conditions: MOI 0.1, 48 hpi, serially diluted compound
HCoV-229E [9] = assay: qRT-PCR of viral RNA, HCoV-229E-infected Huh7 cells; format: cell-based, Human coronavirus 229E; conditions: MOI 0.05, 48 hpi, serially diluted compound
HCoV-OC43 [10] = format: cell-based, Human coronavirus OC43
HCoV-OC43 [11] = assay: Immunofluorescence assay of viral nucleoprotein, HCoV-OC43 in A549/TMPRSS2 cells; format: cell-based, Human coronavirus OC43; conditions: HCoV-OC43 MOI 1, 48 hpi
SARS-CoV [12] = format: cell-based; conditions: Caco-2 cells, MOI 0.1, 48 hpi
SARS-CoV-2 [13] = assay: qRT-PCR of viral RNA, SARS-CoV-2-infected Caco-2 cells; format: cell-based; conditions: MOI 0.1, 48 hpi
SARS-CoV [14] = format: cell-based; conditions: supernatants of SARS-CoV-infected Caco-2 cells, 0.5 μM, 48 hpi
SARS-CoV-2 [15] = format: cell-based
SARS-CoV [16] = format: cell-based; conditions: MRC5/ACE2 cells, 1 μM, 48 hpi
SARS-CoV-2 [17] = assay: Immunofluorescence assay of viral spike protein, SARS-CoV-2 in MRC5/ACE2 cells; format: cell-based
SARS-CoV-2 [18] = assay: Time-of-addition assay, SARS-CoV-2 in Caco-2 cells; format: cell-based; conditions: 1 μM added at 3 hpi, read at 24 hpi
Protocol: The time-of-addition assay was performed according to previous reports ([Ohashi et al., 2021]; [Wang et al., 2020]). Briefly, Caco-2 cells were seeded on the day before SARS-CoV-2 infection (MOI of 0.1) and compound treatment. One micromolar HMTU or DMSO was then added at the indicated time points (Whole, Entry, and Post-entry). For “Whole” treatment, the cells were incubated with both the compound and virus for 1 h. After incubation, unbound viruses were removed, and the cells were cultured with HMTU-containing medium for 2 h to allow viral entry. At 3 hpi, culture supernatants were replaced with new HMTU-containing media and maintained until the end of the experiment. For “Entry” treatment, the cells were incubated as described above, and at 3 hpi, HMTU-containing media were replaced with fresh culture media and maintained until the end of the experiments. For “Post-entry” treatment, HMTU was added to the virus-infected cells at 3 hpi and maintained until the end of the experiment. At 24 hpi, total RNA was isolated, and viral RNA was quantified using qRT–PCR analysis as described above. Supernatants were collected, after which serial dilutions of these supernatants were used to inoculate a monolayer of the VeroE6/TMPRSS2 cells. Three days after inoculation, the CPE was scored, and TCID50/mL was calculated to measure viral titers.

HCoV-OC43 [19] = assay: Resazurin reduction assay, HCoV-OC43-infected MRC5 cells
HCoV-229E [20] = assay: Resazurin reduction assay, HCoV-229E-infected MRC5 cells; conditions: for EC50: Human coronavirus 229E
[21] = MRC5 cells, resazurin reduction assay

**Q.** For Nc1ncnc2c1c(CO)cn2[C@@H]1O[C@H](CO)[C@@H](O)[C@H]1O [HUP1108, 5-hydroxymethyltubercidin], which CC50 [1] is on record?
**A.** Its CC50 is over 20000 nM.

**Q.** What about the “cytotoxicity (in words)” value (BHK-21 cells) of the same compound?
**A.** The value was “did not exhibit cytotoxicity”.

**Q.** And the EC50 (DENV1)?
**A.** Its EC50 is 350 nM.

**Q.** And the EC50 (DENV2)?
**A.** The EC50 was 240 nM.

**Q.** What about the EC50 (DENV3) of the same compound?
**A.** Its EC50 is 420 nM.

**Q.** What about the EC50 (DENV4) of the same compound?
**A.** The EC50 was 520 nM.

**Q.** What about the EC50 (ZIKV) of the same compound?
**A.** Its EC50 is 1300 nM.

**Q.** What about the EC50 (YFV) of the same compound?
**A.** The EC50 was 270 nM.

**Q.** What about the EC50 (JEV) of the same compound?
**A.** The EC50 was 500 nM.

**Q.** What about the EC50 (WNV) of the same compound?
**A.** Its EC50 is 950 nM.

**Q.** And the CC50 [2]?
**A.** Its CC50 is over 50000 nM.

**Q.** What about the CC50 (MRC5 cells) of the same compound?
**A.** Its CC50 is over 50000 nM.

**Q.** What about the EC90 (SARS-CoV-2 [3]) of the same compound?
**A.** The EC90 was 570 nM.

**Q.** And the CC50 [4]?
**A.** Its CC50 is over 20000 nM.

**Q.** And the CC50 [5]?
**A.** Its CC50 is over 20000 nM.

**Q.** And the CC50 [6]?
**A.** Its CC50 is over 20000 nM.

**Q.** And the CC50 [7]?
**A.** The CC50 was over 20000 nM.

**Q.** What about the “HCoV-OC43 replication, subgenomic (nucleocapsid) and genomic (ORF1b) RNA transcripts” value (HCoV-OC43 [8]) of the same compound?
**A.** Its value is “dose-dependent inhibition”.

**Q.** And the “HCoV-229E replication, subgenomic (nucleocapsid) and genomic (ORF1b) RNA transcripts” value (HCoV-229E [9])?
**A.** The value was “dose-dependent inhibition”.

**Q.** What about the “reduction in progeny virus titer” value (HCoV-OC43 [10]) of the same compound?
**A.** The value was over 1 log.

**Q.** And the “positive signals of viral nucleoprotein (IFA)” value (HCoV-OC43 [11])?
**A.** Its value is “decreased in a dose-dependent fashion”.

**Q.** What about the “SARS-CoV RNA replication, subgenomic (nucleocapsid) and genomic (RdRp) transcripts” value (SARS-CoV [12]) of the same compound?
**A.** The value was “inhibited in a dose-dependent manner”.

**Q.** What about the “SARS-CoV-2 RNA replication, subgenomic (nucleocapsid) and genomic (RdRp) transcripts” value (SARS-CoV-2 [13]) of the same compound?
**A.** The value was “inhibited in a dose-dependent manner”.

**Q.** And the “reduction of progeny virus titer” value (SARS-CoV [14])?
**A.** The value was “more than 1 log TCID50/mL”.

**Q.** And the “reduction of progeny virus titer” value (SARS-CoV-2 [15])?
**A.** The value was “more than 1 log TCID50/mL”.

**Q.** What about the “viral spike protein expression (IFA)” value (SARS-CoV [16]) of the same compound?
**A.** Its value is “significantly inhibited”.

**Q.** And the “viral spike protein expression (IFA)” value (SARS-CoV-2 [17])?
**A.** Its value is “significantly inhibited”.

**Q.** And the “intracellular and extracellular viral RNAs, post-entry step” value (SARS-CoV-2 [18])?
**A.** Its value is “significantly reduced”.

**Q.** And the EC50 (HCoV-OC43 [19]; Betacoronavirus 1, OC43, MRC5, read-out: HCoV-OC43 EC50)?
**A.** The EC50 was 350 nM.

**Q.** What about the EC50 (HCoV-OC43 [19]; Betacoronavirus 1, OC43, MRC5, read-out: HCoV-OC43 EC50, mean) of the same compound?
**A.** Its EC50 is 378 nM.

**Q.** What about the “selectivity index (SI = CC50/EC50) for HCoV-OC43” value (HCoV-OC43 [19]; MRC5 cells) of the same compound?
**A.** Its value is over 132.

**Q.** What about the “anti-HCoV-OC43 activity (in words)” value (HCoV-OC43 [19]; [21]) of the same compound?
**A.** Its value is “strong antiviral activities”.

**Q.** And the EC50 (HCoV-229E [20]; MRC5, read-out: HCoV-229E EC50)?
**A.** The EC50 was 430 nM.

**Q.** And the EC50 (HCoV-229E [20]; MRC5, read-out: HCoV-229E EC50, mean)?
**A.** Its EC50 is 528 nM.

**Q.** What about the “selectivity index (SI = CC50/EC50) for HCoV-229E” value (HCoV-229E [20]; MRC5 cells) of the same compound?
**A.** Its value is over 94.

**Q.** What about the “anti-HCoV-229E activity (in words)” value (HCoV-229E [20]; [21]) of the same compound?
**A.** Its value is “strong antiviral activities”.
